Source: US12559732B2, “Compositions and methods for producing human milk oligosaccharides” (NORTH CAROLINA STATE UNIVERSITY, priority 2020, dated 2026)

Experiments:
[1] = molecular target: T1, Hamamotoa (Sporobolomyces) singularis β-hexosyl-transferase (BHT), truncated variant rBHT(57-594)-HIS (residues 1-56 removed); MFα-rBht(57-594)-HIS SEQ ID NO: 52 (Hamamotoa singularis, UniProt Q564N5); details: 0.08-10.4 mM ONP-Glu, 20, 30, 42 and 55° C.
T1 sequence (Q564N5 57-594): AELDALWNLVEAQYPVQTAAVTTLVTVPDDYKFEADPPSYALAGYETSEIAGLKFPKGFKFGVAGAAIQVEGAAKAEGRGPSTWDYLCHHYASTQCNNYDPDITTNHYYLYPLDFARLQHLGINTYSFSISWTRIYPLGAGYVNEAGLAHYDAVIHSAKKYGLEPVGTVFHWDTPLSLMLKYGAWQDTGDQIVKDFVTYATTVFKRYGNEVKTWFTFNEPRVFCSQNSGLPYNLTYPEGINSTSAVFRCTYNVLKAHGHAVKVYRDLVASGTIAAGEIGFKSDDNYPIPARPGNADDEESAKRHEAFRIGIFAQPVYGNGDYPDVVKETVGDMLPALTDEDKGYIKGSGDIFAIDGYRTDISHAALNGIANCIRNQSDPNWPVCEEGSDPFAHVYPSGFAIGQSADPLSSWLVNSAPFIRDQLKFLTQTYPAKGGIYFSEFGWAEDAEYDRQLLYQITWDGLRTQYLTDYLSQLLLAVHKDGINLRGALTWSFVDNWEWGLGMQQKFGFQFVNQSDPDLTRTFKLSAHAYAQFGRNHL

[2] = molecular target: Hamamotoa (Sporobolomyces) singularis β-hexosyl-transferase (BHT), truncated variant rBHT(54-594)-HIS (residues 1-53 removed); MFα-rBht(54-594)-HIS SEQ ID NO: 50 (Hamamotoa singularis, UniProt Q564N5); assay: Kinetics of ONP-Glu cleavage by purified soluble rBHT(54-594)-HIS; format: biochemical; details: 0.08-10.4 mM ONP-Glu, 20, 30, 42 and 55° C.
Description: (§1) K. pastoris Transformation and Expression. […] Expression and purification have been described previously.
(§2) Kinetic parameters of secreted soluble rBHT variants.

[3] = molecular target: T2, Hamamotoa (Sporobolomyces) singularis β-hexosyl-transferase (BHT), truncated variant rBHT(23-594)-HIS (residues 1-22 removed); MFα-rBht(23-594)-HIS SEQ ID NO: 38 (Hamamotoa singularis, UniProt Q564N5); assay: Kinetics of ONP-Glu cleavage by purified soluble rBHT(23-594)-HIS; format: biochemical; details: 0.08-10.4 mM ONP-Glu, 20, 30, 42 and 55° C.
T2 construct: codon-optimized gene
Description: as §1, §2

[4] = molecular target: Hamamotoa (Sporobolomyces) singularis β-hexosyl-transferase (BHT), truncated variant rBHT(32-594)-HIS (residues 1-31 removed); MFα-rBht(32-594)-HIS SEQ ID NO: 48 (Hamamotoa singularis, UniProt Q564N5); assay: Kinetics of ONP-Glu cleavage by purified soluble rBHT(32-594)-HIS; format: biochemical; details: 0.08-10.4 mM ONP-Glu, 20, 30, 42 and 55° C.
Description: as §1, §2

[5] = tested on: Hamamotoa (Sporobolomyces) singularis β-hexosyl-transferase (BHT, EC 3.2.1.21), native; details: lactose concentrations above 20%; cited from earlier work

| Compound | Km (affinity for the substrate ONP-Glu) [1] | kcat (turnover activity, ONP-Glu) [1] | Km (affinity for the substrate ONP-Glu) [2] | kcat (turnover activity, ONP-Glu) [2] | Km (affinity for the substrate ONP-Glu) [3] | kcat (turnover activity, ONP-Glu) [3] | Km (affinity for the substrate ONP-Glu) [4] | kcat (turnover activity, ONP-Glu) [4] | inhibition by lactose [5] |
| --- | --- | --- | --- | --- | --- | --- | --- | --- | --- |
| O=[N+]([O-])c1ccccc1O[C@@H]1O[C@H](CO)[C@@H](O)[C@H](O)[C@H]1O [ONP-Glu] | retain similar affinity for the substrate ONP-Glu (Km) | retain similar affinity for the substrate ONP-Glu (Km) and turnover activity (kcat) | retain similar affinity for the substrate ONP-Glu (Km) | retain similar affinity for the substrate ONP-Glu (Km) and turnover activity (kcat) | retain similar affinity for the substrate ONP-Glu (Km) | retain similar affinity for the substrate ONP-Glu (Km) and turnover activity (kcat) | retain similar affinity for the substrate ONP-Glu (Km) | retain similar affinity for the substrate ONP-Glu (Km) and turnover activity (kcat) | – |
| OC[C@H]1O[C@@H](O[C@H]2[C@H](O)[C@@H](O)C(O)O[C@@H]2CO)[C@H](O)[C@@H](O)[C@H]1O (stereo partly drawn) [lactose] | – | – | – | – | – | – | – | – | does not appear to be inhibited by lactose concentrations above 20% |
